Reference: ChEMBL document CHEMBL3808373 (Bioorg Med Chem Lett, 2016)
The source made the active and inactive calls. The calls are words filed in the database; no cut-off is given here.

Tests used:
Oryctolagus cuniculus = species on record: Oryctolagus cuniculus; test: Inhibition of Nav1.5 in isolated rabbit heart assessed as inhibition of ATX2-induced prolongation of mean action potential duration at 10 to 100000 nM relative to control
Heart [1] = test: Protection against […]/clofilium-induced ventricular arrhythmias in isolated rabbit heart assessed as torsade des pointes at 14 uM relative to control; type: functional, Oryctolagus cuniculus, Cardiac ventricle
[2] = target: T1, Sodium channel protein type 5 subunit alpha (Homo sapiens, UniProt Q14524); test: Inhibition of 0.1 Hz stimulated human Nav1.5alpha expressed in HEK293 cells assessed as inhibition of late sodium current with 3 compound additions for 7 to 8 mins at holding potential -120 mV in presence of late sodium current activator tefluthrin/ATX2 measured immediately after third compound addition by PatchXpress method; type: cell-based
[3] = Half life in dog microsomes; type: ADME, Canis lupus familiaris, Microsome
[4] = Half life in rat microsomes; type: ADME, Microsome
[5] = target: T2, Sodium channel protein type 1 subunit alpha (Homo sapiens, UniProt P35498); test: Inhibition of 10 Hz stimulated Nav1.1 (unknown origin) assessed as inhibition of peak sodium current at 10 uM by automated patch clamp method relative to control
[6] = Half life in human microsomes; type: ADME, Microsome
[7] = target: T1, Sodium channel protein type 5 subunit alpha; conditions: HEK293, human, read-out: INH
Description: Inhibition of 0.1 Hz stimulated human Nav1.5alpha expressed in HEK293 cells assessed as inhibition of late sodium current at 10 uM with 3 compound additions for 7 to 8 mins at holding potential -120 mV in presence of late sodium current activator tefluthrin/ATX2 measured immediately after third compound addition by PatchXpress method relative to control

[8] = target: T3, Nav1.5 (peak sodium current, use-dependent block) (Homo sapiens, UniProt Q14524); test: Inhibition of 3 Hz stimulated human Nav1.5alpha expressed in HEK293 cells assessed as use dependent block of peak sodium current at 10 uM with 3 compound additions at 60 sec intervals at holding potential -100 mV incubated for 320 sec after third compound addition followed by second period of 3 Hz stimulation by PatchXpress method relative to control; type: cell-based; conditions: HEK293 cells expressing human Nav1.5alpha
[9] = Plasma protein binding in human; type: ADME, cell-free; conditions: read-out: PPB (converted)
[10] = Clearance in dog microsomes; type: ADME, Canis lupus familiaris, Microsome
[11] = Oral bioavailability in rat; type: ADME, organism-based; conditions: in vivo
[12] = Volume of distribution in rat; type: ADME, organism-based; conditions: in vivo
[13] = target: T1, Sodium channel protein type 5 subunit alpha; test: Inhibition of Nav1.5 (unknown origin) assessed as inhibition of late sodium current by manual patch clamp method
[14] = Clearance in rat; type: ADME, organism-based; conditions: in vivo
[15] = target: T4, Sodium channel protein type 2 subunit alpha (Homo sapiens, UniProt Q99250); test: Inhibition of 10 Hz stimulated Nav1.2 (unknown origin) by manual patch clamp method
[16] = Volume of distribution in rabbit; type: ADME, organism-based, Oryctolagus cuniculus; conditions: in vivo
[17] = Oral bioavailability in dog; type: ADME, organism-based, Canis lupus familiaris; conditions: in vivo
[18] = Terminal half life in rat; type: ADME, organism-based; conditions: in vivo, read-out: beta t1/2 (converted)
[19] = Ratio of drug level in brain to plasma in dog; type: ADME, cell-free, Canis lupus familiaris; conditions: read-out: BPR
[20] = Clearance in rat microsomes; type: ADME, Microsome
[21] = Terminal half life in dog; type: ADME, organism-based, Canis lupus familiaris; conditions: in vivo, read-out: beta t1/2 (converted)
[22] = target: T1, Sodium channel protein type 5 subunit alpha; test: Inhibition of 3 Hz stimulated Nav1.5 (unknown origin) assessed as inhibition of peak sodium current by manual patch clamp method
[23] = Clearance in rabbit; type: ADME, organism-based, Oryctolagus cuniculus; conditions: in vivo
[24] = Terminal half life in monkey; type: ADME, organism-based, Macaca mulatta; conditions: rhesus monkey, in vivo; read-out: beta t1/2 (converted)
[25] = Volume of distribution in cynomolgus monkey; type: ADME, organism-based, Macaca fascicularis; conditions: in vivo
[26] = Volume of distribution in dog; type: ADME, organism-based, Canis lupus familiaris; conditions: in vivo
[27] = Clearance in human microsomes; type: ADME, Microsome
[28] = Clearance in cynomolgus monkey; type: ADME, organism-based, Macaca fascicularis; conditions: in vivo
[29] = Plasma protein binding in rat; type: ADME, cell-free; conditions: read-out: PPB (converted)
[30] = target: T2, Sodium channel protein type 1 subunit alpha; test: Inhibition of 10 Hz stimulated Nav1.1 (unknown origin) by manual patch clamp method
[31] = target: T2, Sodium channel protein type 1 subunit alpha; test: Inhibition of 1 Hz stimulated Nav1.1 (unknown origin) by manual patch clamp method
[32] = Ratio of drug level in brain to plasma in rat; type: ADME, cell-free; conditions: read-out: BPR
[33] = target: Voltage-gated inwardly rectifying potassium channel KCNH2 (Homo sapiens, UniProt Q12809); test: Inhibition of human ERG
[34] = target: T1, Sodium channel protein type 5 subunit alpha; test: Inhibition of 0.1 Hz stimulated human Nav1.5alpha expressed in HEK293 cells assessed as inhibition of late sodium current at 1 uM with 3 compound additions for 7 to 8 mins at holding potential -120 mV in presence of late sodium current activator tefluthrin/ATX2 measured immediately after third compound addition by PatchXpress method relative to control; type: cell-based
Heart [35] = test: Protection against […]/clofilium-induced ventricular arrhythmias in isolated rabbit heart assessed as inhibition of torsade des pointes at 3 uM; type: functional, tissue-based; conditions: Oryctolagus cuniculus, Cardiac ventricle
[36] = Plasma protein binding in rabbit; type: ADME, cell-free, Oryctolagus cuniculus; conditions: read-out: PPB (converted)
[37] = Clearance in cynomolgus monkey microsomes; type: ADME, Macaca fascicularis, Microsome
[38] = target: T4, Sodium channel protein type 2 subunit alpha; test: Inhibition of 1 Hz stimulated Nav1.2 (unknown origin) by manual patch clamp method
[39] = target: T1, Sodium channel protein type 5 subunit alpha; test: Inhibition of 1 Hz stimulated Nav1.5 (unknown origin) assessed as inhibition of peak sodium current by manual patch clamp method
[40] = Terminal half life in rabbit; type: ADME, organism-based, Oryctolagus cuniculus; conditions: in vivo, read-out: beta t1/2 (converted)
[41] = Plasma protein binding in dog; type: ADME, cell-free, Canis lupus familiaris; conditions: read-out: PPB (converted)
Rattus norvegicus = species on record: Rattus norvegicus; test: Toxicity in rat assessed as liver lesions after 7 days; type: organism-based; conditions: in vivo, 168 h
[42] = Clearance in dog; type: ADME, organism-based, Canis lupus familiaris; conditions: in vivo
[43] = Inhibition of Nav1.5 in isolated rabbit heart assessed as inhibition of ATX2-induced prolongation of mean action potential duration; conditions: Oryctolagus cuniculus
[44] = Lipophilicity, log D of compound; type: physicochemical; conditions: octanol/water
[45] = target: T3, Nav1.5 (peak sodium current, use-dependent block); test: Inhibition of 3 Hz stimulated human Nav1.5alpha expressed in HEK293 cells assessed as use dependent block of peak sodium current at 0.3 uM with 3 compound additions at 60 sec intervals at holding potential -100 mV incubated for 320 sec after third compound addition followed by second period of 3 Hz stimulation by PatchXpress method relative to control; type: cell-based; conditions: HEK293 cells expressing human Nav1.5alpha
[46] = target: T3, Nav1.5 (peak sodium current, use-dependent block); test: Inhibition of 3 Hz stimulated human Nav1.5alpha expressed in HEK293 cells assessed as use dependent block of peak sodium current at 1 uM with 3 compound additions at 60 sec intervals at holding potential -100 mV incubated for 320 sec after third compound addition followed by second period of 3 Hz stimulation by PatchXpress method relative to control; type: cell-based; conditions: HEK293 cells expressing human Nav1.5alpha

T3 sequence (Q14524 whole entry): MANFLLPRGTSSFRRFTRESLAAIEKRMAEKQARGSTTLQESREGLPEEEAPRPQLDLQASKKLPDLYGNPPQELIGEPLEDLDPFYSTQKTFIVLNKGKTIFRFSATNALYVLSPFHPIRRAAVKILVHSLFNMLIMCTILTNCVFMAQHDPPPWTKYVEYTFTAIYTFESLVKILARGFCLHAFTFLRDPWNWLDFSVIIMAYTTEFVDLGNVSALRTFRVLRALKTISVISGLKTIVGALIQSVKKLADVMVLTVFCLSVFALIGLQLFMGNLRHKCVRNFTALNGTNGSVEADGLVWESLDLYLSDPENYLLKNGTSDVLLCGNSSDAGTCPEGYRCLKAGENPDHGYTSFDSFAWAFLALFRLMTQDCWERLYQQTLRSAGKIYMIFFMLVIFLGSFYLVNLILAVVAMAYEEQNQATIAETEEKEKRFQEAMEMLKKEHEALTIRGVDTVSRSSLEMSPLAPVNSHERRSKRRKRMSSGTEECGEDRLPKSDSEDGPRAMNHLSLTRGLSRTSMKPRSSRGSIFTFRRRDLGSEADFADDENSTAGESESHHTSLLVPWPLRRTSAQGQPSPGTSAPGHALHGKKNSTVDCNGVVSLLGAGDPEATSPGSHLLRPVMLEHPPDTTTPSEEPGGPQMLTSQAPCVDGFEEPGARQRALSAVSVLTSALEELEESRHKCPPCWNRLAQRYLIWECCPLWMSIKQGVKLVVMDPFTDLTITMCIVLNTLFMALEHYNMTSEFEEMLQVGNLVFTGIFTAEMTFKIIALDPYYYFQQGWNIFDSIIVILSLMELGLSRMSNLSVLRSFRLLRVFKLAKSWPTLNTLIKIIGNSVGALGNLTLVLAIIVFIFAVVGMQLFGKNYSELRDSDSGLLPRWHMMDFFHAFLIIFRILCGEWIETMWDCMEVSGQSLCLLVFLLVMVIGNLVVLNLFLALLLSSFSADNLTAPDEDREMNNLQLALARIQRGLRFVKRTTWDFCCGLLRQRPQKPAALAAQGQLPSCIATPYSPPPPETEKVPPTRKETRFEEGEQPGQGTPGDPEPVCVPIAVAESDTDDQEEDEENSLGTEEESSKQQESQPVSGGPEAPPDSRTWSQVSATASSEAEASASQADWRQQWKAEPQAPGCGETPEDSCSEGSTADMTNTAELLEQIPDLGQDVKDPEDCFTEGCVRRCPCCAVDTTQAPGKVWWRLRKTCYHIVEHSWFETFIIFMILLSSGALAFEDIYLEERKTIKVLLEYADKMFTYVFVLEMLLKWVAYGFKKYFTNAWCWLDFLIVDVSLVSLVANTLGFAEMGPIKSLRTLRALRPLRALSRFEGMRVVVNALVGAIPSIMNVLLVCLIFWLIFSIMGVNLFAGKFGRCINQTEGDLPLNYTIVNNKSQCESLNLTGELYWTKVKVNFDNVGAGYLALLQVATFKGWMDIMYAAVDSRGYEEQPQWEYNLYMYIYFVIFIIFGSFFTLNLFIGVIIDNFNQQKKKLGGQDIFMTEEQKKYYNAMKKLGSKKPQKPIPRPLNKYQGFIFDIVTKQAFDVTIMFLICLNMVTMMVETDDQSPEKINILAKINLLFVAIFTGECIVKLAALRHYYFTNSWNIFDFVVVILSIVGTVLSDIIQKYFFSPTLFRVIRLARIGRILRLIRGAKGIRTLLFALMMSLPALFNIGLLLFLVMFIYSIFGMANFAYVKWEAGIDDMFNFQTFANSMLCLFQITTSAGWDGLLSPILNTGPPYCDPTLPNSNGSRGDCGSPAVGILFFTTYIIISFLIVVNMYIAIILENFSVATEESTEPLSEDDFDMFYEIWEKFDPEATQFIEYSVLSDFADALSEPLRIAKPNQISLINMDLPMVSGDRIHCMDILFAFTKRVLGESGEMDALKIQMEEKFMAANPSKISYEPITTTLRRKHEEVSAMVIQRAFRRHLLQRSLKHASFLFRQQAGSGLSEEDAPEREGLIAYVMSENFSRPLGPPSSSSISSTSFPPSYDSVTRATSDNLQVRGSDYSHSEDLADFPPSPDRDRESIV
T1 sequence (Q14524 whole entry): as above

Structure (SMILES): COc1ccccc1OCC(O)CN1CCN(CC(=O)Nc2c(C)cccc2C)CC1 (stereo not given) [RANOLAZINE]
- inhibition (Oryctolagus cuniculus): 60%
- Activity (Heart [1]): 40%

Structure (SMILES): Cc1coc(Cn2nc3ccc(-c4ccc(OC(F)(F)F)cc4)cn3c2=O)n1
- IC50 [2]: 2.5 µM
- half-life [3]: 2.67 h
- half-life [4]: 0.683 h
- inhibition [5]: 28%
- half-life [6]: 2.4 h
- inhibition at 10 µM [7]: ≥ 70%

Structure (SMILES): O=c1[nH]nc2ccc(-c3ccc(OC(F)(F)F)cc3)cn12
- inhibition at 320 s, 10 µM [8]: 24%
- IC50 [2]: 1.9 µM
- half-life [3]: 3.17 h
- half-life [4]: 1.48 h
- half-life [6]: 6.5 h
- inhibition at 10 µM [7]: ≥ 70%

Structure (SMILES): Cc1noc(Cn2nc3ccc(-c4ccc(OC(F)(F)F)cc4)cn3c2=O)n1
- fraction unbound [9]: 0.05
- CL [10]: 4.33 mL/min/kg
- bioavailability [11]: 44.3%
- Vd [12]: 1.95 L/kg
- inhibition at 320 s, 10 µM [8]: 10%
- IC50 [13]: 1.33 µM
- clearance [14]: 12 mL/min/kg
- IC50 [15]: 8.1 µM
- Vd [16]: 2.24 L/kg
- bioavailability [17]: 72.8%
- half-life [18]: 2.1 h
- Kp [19]: > 20
- CL [20]: 8.67 mL/min/kg
- half-life [21]: 17.3 h
- IC50 [22]: > 10 µM
- clearance [23]: 7.03 mL/min/kg
- IC50 [2]: 1.9 µM
- half-life [3]: 3.93 h
- half-life [24]: 4.78 h
- Vd [25]: 2.29 L/kg
- Vd [26]: 4.23 L/kg
- CL [27]: 3.5 mL/min/kg
- half-life [4]: 3.3 h
- clearance [28]: 7.97 mL/min/kg
- inhibition [5]: 8%
- fraction unbound [29]: 0.046
- IC50 [30]: 4.8 µM
- IC50 [31]: > 10 µM
- Kp [32]: > 20
- IC50 [33]: > 10 µM
- inhibition at 1 µM [34]: 31%
- inhibition (Heart [35]): Active
- fraction unbound [36]: 0.043
- CL [37]: 6.7 mL/min/kg
- IC50 [38]: 4.2 µM
- half-life [6]: 5.13 h
- IC50 [39]: > 10 µM
- half-life [40]: 4.81 h
- fraction unbound [41]: 0.057
- inhibition (Oryctolagus cuniculus): 90%
- inhibition at 10 µM [7]: ≥ 70%
- Activity (Rattus norvegicus): Toxic
- clearance [42]: 7.98 mL/min/kg
- IC50 [43]: 1.2 µM

Structure (SMILES): Cc1cnc(Cn2nc3ccc(-c4ccc(OC(F)(F)F)cc4)cn3c2=O)o1
- IC50 [2]: 2.5 µM
- half-life [3]: 3.8 h
- half-life [4]: 0.4 h
- inhibition [5]: 44%
- half-life [6]: 4.8 h
- inhibition at 10 µM [7]: ≥ 70%

Structure (SMILES): O=c1n(Cc2nc(-c3c(Cl)cccc3Cl)no2)nc2ccc(-c3ccc(OC(F)(F)F)cc3)cn12
- IC50 [2]: 3.5 µM
- inhibition at 10 µM [7]: ≥ 70%

Structure (SMILES): Cc1noc(Cn2nc3ccc(-c4ccc(Oc5ccc(F)cc5)cc4)cn3c2=O)n1
- IC50 [2]: 215 µM
- half-life [3]: 3.62 h
- half-life [4]: 1.42 h
- logD [44]: 3
- half-life [6]: 2.12 h
- inhibition at 320 s, 0.3 µM [45]: 33%
- inhibition at 10 µM [7]: ≥ 70%

Structure (SMILES): O=c1[nH]nc2ccc(-c3ccc(Oc4ccc(F)cc4)cc3)cn12
- inhibition at 320 s, 1 µM [46]: 28%
- IC50 [2]: 1900 µM
- half-life [3]: 4.55 h
- half-life [4]: 0.717 h
- inhibition [5]: 40%
- half-life [6]: 6.58 h
- inhibition at 10 µM [7]: ≥ 70%

Structure (SMILES): Cc1noc(Cn2nc3ccc(-c4ccc(Oc5ccc(Cl)cc5)cc4)cn3c2=O)n1
- inhibition at 320 s, 1 µM [46]: 47%
- IC50 [2]: 134 µM
- half-life [3]: 1.57 h
- half-life [4]: 0.567 h
- inhibition [5]: 42%
- logD [44]: 3.4
- half-life [6]: 0.75 h
- inhibition at 10 µM [7]: ≥ 70%

Structure (SMILES): CCc1noc(Cn2nc3ccc(-c4ccc(OC(F)(F)F)cc4)cn3c2=O)n1
- IC50 [2]: 4 µM
- inhibition at 10 µM [7]: ≥ 70%
